Assay [1] deals with Bacillus subtilis. The experiment in a line: Antibacterial activity against Bacillus subtilis MTCC 121 by NCCLS broth macrodilution method. It counts as functional.
In assay [2] the test system is Staphylococcus aureus. As to the kind of experiment: Antibacterial activity against Staphylococcus aureus MTCC 96 by NCCLS broth macrodilution method. It counts as functional.
Assay [3] deals with Bacillus subtilis. The experiment in a line: Antibacterial activity against Bacillus subtilis MTCC 121 at 4 mg/ml after 24 hr by agar well diffusion method. It counts as functional. To be noted: MTCC 121, 24 h, read-out: DIZ. (In agar diffusion tests the substance spreads into inoculated agar from a disc or well.)
Assay [4] has as its system Staphylococcus aureus. As to the kind of experiment: Antibacterial activity against Staphylococcus aureus MTCC 96 at 4 mg/ml after 24 hr by agar well diffusion method. To be noted: MTCC 96, 24 h, read-out: DIZ. It counts as functional.
The test system of assay [5] is Pseudomonas aeruginosa. As to the kind of experiment: microbe, parasite or virus in culture. The note with it: MTCC 741, 24 h, read-out: DIZ.
In assay [6] the test system is Rattus norvegicus. As to the kind of experiment: Anti-inflammatory activity in Rattus norvegicus Wistar albino (rat) assessed as inhibition of carrageenan-induced paw edema at 10 mg/kg, ip administered for 30 min prior to carrageenan challenge measured at 4 hr relative to control. The note with it: route intraperitoneal. It counts as functional. Background: Carrageenan injected into the paw causes an acute inflammation.

Assay [7] deals with Rattus norvegicus. The experiment in a line: Anti-inflammatory activity in Rattus norvegicus Wistar albino (rat) assessed as inhibition of carrageenan-induced paw edema at 10 mg/kg, ip administered for 30 min prior to carrageenan challenge measured at 3 hr relative to control. To be noted: route intraperitoneal. It counts as functional.
For assay [8], the species on record is Rattus norvegicus. The experiment in a line: animal or person. The note with it: Wistar albino, ip, read-out: INH.
The species entered for assay [9] is Rattus norvegicus. The experiment in a line: animal or person. To be noted: Wistar albino, ip, read-out: INH. The source holds these as a separate data set.
In assay [10] the test system is Escherichia coli. As to the kind of experiment: Antibacterial activity against Escherichia coli MTCC 1652 at 4 mg/ml after 24 hr by agar well diffusion method. It counts as functional, organism-based.
The subject of assay [11] is Rattus norvegicus. The experiment in a line: Anti-inflammatory activity in Rattus norvegicus Wistar albino (rat) assessed as inhibition of carrageenan-induced paw edema at 50 mg/kg, po administered for 30 min prior to carrageenan challenge measured at 4 hr relative to control. It counts as functional.
The subject of assay [12] is Rattus norvegicus. The experiment in a line: Anti-inflammatory activity in Rattus norvegicus Wistar albino (rat) assessed as inhibition of carrageenan-induced paw edema at 50 mg/kg, po administered for 30 min prior to carrageenan challenge measured at 3 hr relative to control. It counts as functional.
For assay [13], the system named is Rattus norvegicus. The experiment in a line: Anti-inflammatory activity in Rattus norvegicus Wistar albino (rat) assessed as inhibition of carrageenan-induced paw edema at 50 mg/kg, po administered for 30 min prior to carrageenan challenge measured at 2 hr relative to control. It counts as functional.
The subject of assay [14] is Rattus norvegicus. The experiment in a line: Anti-inflammatory activity in Rattus norvegicus Wistar albino (rat) assessed as inhibition of carrageenan-induced paw edema at 50 mg/kg, po administered for 30 min prior to carrageenan challenge measured at 1 hr relative to control. It counts as functional.
Assay [15] deals with Pseudomonas aeruginosa. To be noted: MTCC 741, 4 mg/ml.

SMILES strings stand for the structures. Values after ≈ are worked out from the molar mass of the structure shown. Active and inactive are the calls of the source. The calls are words filed in the database; no cut-off is given here.

A word on the MIC: it is the lowest concentration found to suppress growth. Lower therefore signals inhibition by little substance.

In the case of `O=C(O)c1cn(C2CC2)c2cc(N3CCNCC3)c(F)cc2c1=O` [CIPROFLOXACIN], the minimum inhibitory concentration (MIC) in assay [1] and in assay [2] was 5 µg/mL (≈ 15.1 µM) each time. Moreover, the figures for the zone of inhibition at 4000 µg/mL in [3], in assay [4] and in [5] were 25.6 mm, 26.3 mm and 23.3 mm, respectively.
As to `COc1ccc2c(c1)c(CC(=O)O)c(C)n2C(=O)c1ccc(Cl)cc1` [INDOMETHACIN], the inhibition in vivo at 10 mg/kg in [6] was determined as 78%; in [7] it was 78%; in assay [8], 79%; in assay [9], 41%.
For the compound `NS(=O)(=O)c1ccc(-n2cc(/C=N/Nc3nc(-c4ccccc4)cs3)c(-c3ccc(F)cc3)n2)cc1`, the MIC in assay [1] and in [2] was greater than 128 µg/mL throughout. Moreover, the “diameter of the inhibition zone (DIZ)” value in [10] is “inactive”. The results for the zone of inhibition at 4000 µg/mL in assay [3] and in [4] were 16.6 mm and 14.6 mm, respectively. For the same compound, the inhibition in vivo at 50 mg/kg worked out at 56% in [11], 65% in [12], 60% in assay [13] and 11% in assay [14]. For the same compound, the DIZ result in [15] was “inactive”.
`NC(=S)N/N=C/c1cn(-c2ccc(S(N)(=O)=O)cc2)nc1-c1ccccc1`: the MIC came out at 64 µg/mL (≈ 160 µM) in assay [1] and 128 µg/mL (≈ 320 µM) in [2]. Moreover, in assay [10], the “diameter of the inhibition zone (DIZ)” value was “inactive”. For the same compound, the zone of inhibition at 4000 µg/mL in assay [3] is 19.6 mm; in assay [4], 17 mm. The inhibition in vivo at 50 mg/kg was 63% in assay [11], 67% in [12], 59% in [13] and 35% in [14]. For the same compound, in assay [15], the DIZ entry is “inactive”.
As for `NC(=S)N/N=C/c1cn(-c2ccc(S(N)(=O)=O)cc2)nc1-c1ccc(F)cc1`, the minimal inhibitory concentration (MIC) in [1] and in assay [2] was greater than 128 µg/mL in each case. In addition, in assay [10], the “diameter of the inhibition zone (DIZ)” value was “inactive”. In addition, the results for the zone of inhibition at 4000 µg/mL in [3] and in assay [4] were 15.3 mm and 15.6 mm, respectively. The inhibition in vivo at 50 mg/kg was 75% in assay [11], 73% in assay [12], 75% in assay [13] and 24% in assay [14]. In assay [15], the DIZ entry is “inactive”.
Consider `Cc1ccc(-c2nn(-c3ccc(S(N)(=O)=O)cc3)cc2/C=N/NC(N)=S)cc1`, for which the minimum inhibitory concentration (MIC) in [1] and in assay [2] was greater than 128 µg/mL throughout. The “diameter of the inhibition zone (DIZ)” value in assay [10] is “inactive”. Moreover, the results for the zone of inhibition at 4000 µg/mL in assay [3] and in [4] were 14.3 mm and 16.3 mm, respectively. Also, the inhibition in vivo at 50 mg/kg in assay [11] amounted to 70%; in [12] it was 75%; in [13], 72%; in [14], 32%. For the same compound, in assay [15], the DIZ entry is “inactive”.

(Values after ChEMBL document CHEMBL3046519, “Synthesis and biological evaluation of some pyrazole derivatives as anti-inflammatoryantibacterial agents” (2012).)
